Here are results for 2 molecules from patent US20110098214A1 (priority 2005, published 2011).

The subject of series [1] is mouse model for endotoxemia. As to conditions: in vivo.
The target in a further series is T1, human IL-1β (Pepro Tech) (human, UniProt P01584 117-269).
T1 construct: Commercial protein added at 200 ng/mL to the LPS solution
The series can be described thus: batch adsorption on peptide-immobilized silica beads, in an LPS solution (500 ng/mL LPS) containing IL-1β.

Square brackets hold non-standard residues; d marks the D form. Ends that are not written are not given here. Peptide text beside a SMILES is read from it.

As to `CC[C@H](C)[C@H](NC(=O)[C@H](CO)NC(=O)[C@H](CO)NC(=O)[C@@H](NC(=O)[C@H](CO)NC(=O)[C@H](CO)NC(=O)[C@H](CO)NC(=O)[C@H](Cc1ccc(O)cc1)NC(=O)[C@H](N)CCCCN)[C@@H](C)CC)C(=O)N[C@@H](CCCNC(=N)N)C(=O)NCC(=O)NCC(=O)N[C@@H](CC(C)C)C(=O)N[C@@H](CC(C)C)C(=O)N[C@@H](CC(C)C)C(=O)N[C@@H](CC(C)C)C(=O)N[C@@H](CC(C)C)C(=O)N[C@@H](CC(C)C)C(=O)N[C@@H](CC(C)C)C(=O)O` [Wine Opener, kYSSSISSIRGGLLLLLLL] (H-[dK]YSSSISSIRGGLLLLLLL-OH; N-terminus and C-terminus assumed), in series [1], the “short term toxicity (weight)” value was “no short term toxicity which affected weight”.

B1: peptide Li5 C (peptide)
peptide: KNYSSSISSIHAC
modifications: also: immobilized on silica beads via C-terminal Cys thiol
notes: In the assay it was immobilized on propionyl chloride functionalized silica gel beads
Turning to B1, the binding result with human IL-1β (Pepro Tech) is recorded as “no binding (tested: 200 ng/mL IL-1β)”.
